Patent US20210030022A1, “NOVEL USE OF SUBSTITUTED CHROMAN-6-OLS” (DSM IP ASSETS B.V., priority 2018, published 2021)

Assays:
[1] = Oxipres antioxidant efficacy value (EV) in fish meal; settings: Oxipres 70° C., 5 bar O2, equimolar to BHT; EV relative to BHT (EV=1)
Procedure: Oxidative stability was assessed using an Oxipres (Mikrolab Aarhus A/S, Hojbjerg, Denmark). The ML OXIPRES® is designed to monitor the oxidation of heterogeneous products. Consumption of oxygen results in a pressure drop which is measured by means of pressure transducers. The samples are heated to accelerate the process and shorten the analysis time (Mikrolab Aarhus 2012).
Sample weights were 50 g. They were loaded into the Oxipres vessels and placed inside the stainless-steel pressure vessel and sealed. The pressure vessels were purged with pure oxygen and filled to an initial oxygen pressure of 5 bar and maintained at 70° C. during measurement (D. Ying, L. Edin, L. Cheng, L. Sanguansri, M. A. Augustin, LWT—Food Science and Technology 2015, 62, 1105-1111: “Enhanced oxidative stability of extruded product containing polyunsaturated oils.”).
The oxygen pressure was recorded as function of time. After sample load and temperature rise the pressure in the device is increasing within 10 hours up to the starting pressure. Thereafter it is decreasing. Consequently, the starting pressure is considered as being the pressure after 10 hours. The analysis ends after 130 hours at 70° C. The oxygen consumption ‘O2’ of the tested sample is calculated as follows: […]
A factor of protection called ‘EV’ (Efficacy Value) was developed to quantify with a relative number (relative to BHT) the antioxidant effect of the tested candidates. EV was calculated as follows:
EV, being relative to BHT (3,5-di-tert-butyl-4-hydroxy-toluene) (EV=1), makes it possible to compare the antioxidant compounds in a defined feed application.
Each of the compounds of formulae (1) to (6) were mixed into each matrix 1, 2 or 3 (pet food, poultry meal, fish meal) in an equimolar ratio compared to BHT. Batches of 200 g feed were produced in order to handle a minimum of 30 mg of antioxidant. First, a 1% pre-dilution of the antioxidant with the feed material was made. Then this pre-dilution was added to the final batch, mixed, sieved (1.25 mm sieve) and mixed using a turbula mixer. Thereafter 55 g of the final batch were packed into polyethylene bags, and stored at 4° C. until start of the Oxipres assay. Spare sample were stored at 4° C. Compound of formula (3) was measured in all three matrices. Compound of formula (1) was measured in matrix 1 and 2. Compound of formula (2) was measured in matrix 2. Compounds of formulae (4), (5) and (6) were measured in matrix 3. An efficacy value 0.7 has been considered as acceptable, an efficacy value ≥ the efficacy value of alpha-tocopherol as good, and an efficacy value ≥ the efficacy value of BHT as very good.

[2] = Solubility in fish oil; type: physicochemical
Procedure: The compounds of formulae (4), (6), (8) and (9) were evaluated primarily for their oxidative stability by the Oil Stability Index (OSI) measurements. Two different levels of these antioxidants (0.5 and 2 mg/g) were used in 5 g of natural fish oil (Product code: FG30TG) and used in the Oxidative Stability Instrument at 80° C. with the air flow rate of 40 psi. The solubility of different amounts and types of antioxidants used in OSI was checked before and after the application. […]

[3] = Oil Stability Index (OSI) in fish oil, Example 12; settings: for OSI / Protection Factor (%): FG30TG fish oil; for antioxidant effect (OSI) in fish oil compared with MNT: Example 12, same level of MNT
Procedure: The compounds of formulae (4), (6), (8) and (9) were evaluated primarily for their oxidative stability by the Oil Stability Index (OSI) measurements. Two different levels of these antioxidants (0.5 and 2 mg/g) were used in 5 g of natural fish oil (Product code: FG30TG) and used in the Oxidative Stability Instrument at 80° C. with the air flow rate of 40 psi. The solubility of different amounts and types of antioxidants used in OSI was checked before and after the application.
The compounds of formulae (6) and (9) (see Table 14 below), compound of formula (4) (see Table 15 below) and compound of formula (8) (see Table 16 below) were used at different times in the Oxidative Stability instruments under similar operational conditions used for fish oil evaluations. MNT and the oil without any antioxidants (“Blank”) were always used to compare. Also, the synergistic effect of only oil soluble compounds with ascorbyl palmitate was determined using the OSI values. The polymers generated at the end of the experiment were determined by LC (LC=liquid chromatography).
The Protection Factors (PF) for each compound in oil were calculated in percentage as: […]

[4] = Polymers generated at end of OSI experiment in fish oil, by LC; settings: FG30TG oil, end of stabilization experiment
Procedure: The compounds of formulae (6) and (9) (see Table 14 below), compound of formula (4) (see Table 15 below) and compound of formula (8) (see Table 16 below) were used at different times in the Oxidative Stability instruments under similar operational conditions used for fish oil evaluations. MNT and the oil without any antioxidants (“Blank”) were always used to compare. Also, the synergistic effect of only oil soluble compounds with ascorbyl palmitate was determined using the OSI values. The polymers generated at the end of the experiment were determined by LC (LC=liquid chromatography). Polymers generated at the end of the stabilization experiment of fish oil with compounds of formulae 6 and 9 and AP are shown in Table 24. A combination of complex, polymeric compounds generated at the end of the oxidation cascade of unsaturated fatty acids indicate the levels of overall oxidation of the matrix. The generation of such polymers in fish oil containing these novel antioxidant compounds could be reduced considerably when AP was added as a synergistic compound (Table 24).

[5] = Storage stability in fish oil (PV, p-AV, CD), Example 12; settings: FG30TG, 2 mg/g
Procedure: Tables 25, 26 and 27 show the PV (peroxide value), p-AV (p-anisidine value) and CD (Conjugated dienoic acid %) of the fish oil samples stabilized with compounds of formulae (6), (8) and (9), respectively.
For the storage stability study oil soluble compounds were used in fish oil at 2 mg/g level only. […] There was no considerable variation in p-AV and CD (Tables 26-27) during the storage.

[6] = Oil Stability Index in crude algal oil, Example 12; settings: for prooxidant effect in algal oil: higher levels (2 mg/g)
Text: To evaluate the efficacy of the compounds of formulae (4), (6), (8) and (9) in algal oils, only oil soluble compounds were used. […] Protection Factors of all these compounds, including MNT, in fish oil could be improved by the addition of AP (Tables 22-23) indicating the possibility of combining AP to all these novel compounds to improve the oxidative stability of matrices containing high amounts of unsaturated fatty acids such as fish oil.

[7] = Table 20, 2 mg/g + 0.5 mg/g of AP (ascorbyl palmitate)
[8] = Table 22, 2 mg/g + 0.5 mg/g of AP

Structure (SMILES): Cc1c(C)c2c(c(C)c1O)CCC(C)(CO)O2 (centres unmarked) [Compound of formula (6), 2-Hydroxymethyl-2,5,7,8-Tetramethyl-6-Chromanol]
- EV in Fish meal [1]: 1.03
- Solubility in fish oil, 80° C. ([2]; 0.5 mg/g): Soluble
- Solubility in fish oil, Room temp. ([2]; 0.5 mg/g): Soluble
- Solubility in fish oil, 80° C. ([2]; 2.0 mg/g): Soluble
- Solubility in fish oil, Room temp. ([2]; 2.0 mg/g): Soluble
- OSI ([3]; Table 14, 80° C., 0.5 mg/g): 7.05 h
- OSI ([3]; Table 14, 80° C., 2 mg/g): 7.30 h
- Protection Factor (%) ([3]; Table 17, 0.5 mg/g): 54.95%
- Protection Factor (%) ([3]; Table 17, 2 mg/g): 60.44%
- OSI [3, 7]: 11.20 h
- OSI ([3]; Table 20, 2 mg/g, without AP): 6.15 h
- Protection Factor (%) [3, 8]: 141.9%
- Protection Factor (%) ([3]; Table 22, 2 mg/g, without AP): 32.8%
- antioxidant effect (OSI) in fish oil compared with MNT [3]: comparable to the effect of MNT
- Polymers (%) ([4]; 2 mg/g + 0.5 mg/g of AP): 25.09%
- Polymers (%) ([4]; 2 mg/g, without AP): 37.37%
- CD (conjugated dienoic acid in %) ([5]; 4 days): 0.7%
- PV (peroxide value) ([5]; 4 days): 4.1
- p-AV (p-anisidine value) ([5]; 4 days): 10.4
- CD (conjugated dienoic acid in %) ([5]; 6 days): 0.7%
- PV (peroxide value) ([5]; 6 days): 7
- p-AV (p-anisidine value) ([5]; 6 days): 9.7
- CD (conjugated dienoic acid in %) ([5]; 8 days): 0.7%
- PV (peroxide value) ([5]; 8 days): 7.9
- p-AV (p-anisidine value) ([5]; 8 days): 10.2
- CD (conjugated dienoic acid in %) ([5]; 11 days): 0.8%
- PV (peroxide value) ([5]; 11 days): 10.2
- p-AV (p-anisidine value) ([5]; 11 days): 10.4
- CD (conjugated dienoic acid in %) ([5]; 13 days): 0.8%
- PV (peroxide value) ([5]; 13 days): 14.9
- p-AV (p-anisidine value) ([5]; 13 days): 10.3
- CD (conjugated dienoic acid in %) ([5]; 15 days): 0.8%
- PV (peroxide value) ([5]; 17 days): 18.6
- p-AV (p-anisidine value) ([5]; 17 days): 10.7
- CD (conjugated dienoic acid in %) ([5]; Initial): 0.7%
- PV (peroxide value) ([5]; Initial): 0.9
- p-AV (p-anisidine value) ([5]; Initial): 9.9
- OSI values in algal oil compared with MNT [6]: clearly lower OSI values than those of MNT
- prooxidant effect in algal oil [6]: possible prooxidant effect

Structure (SMILES): Cc1c(C)c2c(c(C)c1O)CCC(C)(CCCC(C)C)O2 (centres unmarked) [Compound of formula (9)]
- Solubility in fish oil, 80° C. ([2]; 0.5 mg/g): Soluble
- Solubility in fish oil, Room temp. ([2]; 0.5 mg/g): Soluble
- Solubility in fish oil, 80° C. ([2]; 2.0 mg/g): Soluble
- Solubility in fish oil, Room temp. ([2]; 2.0 mg/g): Soluble
- OSI ([3]; Table 14, 80° C., 0.5 mg/g): 5.75 h
- OSI ([3]; Table 14, 80° C., 2 mg/g): 6.05 h
- Protection Factor (%) ([3]; Table 17, 0.5 mg/g): 26.37%
- Protection Factor (%) ([3]; Table 17, 2 mg/g): 32.97%
- OSI [3, 7]: 8.93 h
- OSI ([3]; Table 20, 2 mg/g, without AP): 6.30 h
- Protection Factor (%) [3, 8]: 92.8%
- Protection Factor (%) ([3]; Table 22, 2 mg/g, without AP): 36.1%
- antioxidant effect (OSI) in fish oil compared with MNT [3]: comparable to the antioxidative effect of MNT
- Polymers (%) ([4]; 2 mg/g + 0.5 mg/g of AP): 31.06%
- Polymers (%) ([4]; 2 mg/g, without AP): 40.34%
- CD (conjugated dienoic acid in %) ([5]; 4 days): 0.7%
- PV (peroxide value) ([5]; 4 days): 2.9
- p-AV (p-anisidine value) ([5]; 4 days): 10.5
- CD (conjugated dienoic acid in %) ([5]; 6 days): 0.7%
- PV (peroxide value) ([5]; 6 days): 7.3
- p-AV (p-anisidine value) ([5]; 6 days): 9.9
- CD (conjugated dienoic acid in %) ([5]; 8 days): 0.8%
- PV (peroxide value) ([5]; 8 days): 8.8
- p-AV (p-anisidine value) ([5]; 8 days): 10.3
- CD (conjugated dienoic acid in %) ([5]; 11 days): 0.9%
- PV (peroxide value) ([5]; 11 days): 11.2
- p-AV (p-anisidine value) ([5]; 11 days): 10.5
- CD (conjugated dienoic acid in %) ([5]; 13 days): 0.8%
- PV (peroxide value) ([5]; 13 days): 15
- p-AV (p-anisidine value) ([5]; 13 days): 10.5
- CD (conjugated dienoic acid in %) ([5]; 15 days): 0.8%
- PV (peroxide value) ([5]; 17 days): 19.2
- p-AV (p-anisidine value) ([5]; 17 days): 11
- CD (conjugated dienoic acid in %) ([5]; Initial): 0.7%
- PV (peroxide value) ([5]; Initial): 0.9
- p-AV (p-anisidine value) ([5]; Initial): 9.9
- OSI values in algal oil compared with MNT [6]: clearly lower OSI values than those of MNT
- prooxidant effect in algal oil [6]: possible prooxidant effect
